Measured values published in the NIST ThermoML archive (doi:10.1021/je9004068).

Columns and labels:
[1] = refractive index (Na D-line) (dimensionless); settings: 298.15 K; 101.33 kPa; Liquid; Standard Abbe refractometry
[2] = for mass density: 298.15 K, 101.33 kPa; for mass density / vapor or sublimation pressure: Liquid; for surface tension liquid-gas: 303.15 K, Maximal bubble pressure
[3] = xn = mol fraction of the nth substance listed; settings: 303.15 K, Maximal bubble pressure

COC(C)(C)C [2-methoxy-2-methylpropane]
Settings	mass density [kg/m3]	refractive index	surface tension liquid-gas [mN/m]
[1]	–	1.36766	–
[2]	735.45	–	18.7

[2]
Settings	vapor or sublimation pressure [kPa]
308.3 K	50
319.39 K	75
325.98 K	94

COC(C)(C)C [2-methoxy-2-methylpropane] + CCO
[3]
Settings	surface tension liquid-gas [mN/m]
x2 = 0.102	18.39
x2 = 0.212	18.38
x2 = 0.31	18.54
x2 = 0.408	18.84
x2 = 0.527	19
x2 = 0.623	19.21
x2 = 0.721	19.56
x2 = 0.826	20.03

CCO [ethanol]
Settings	mass density [kg/m3]	refractive index	surface tension liquid-gas [mN/m]
[1]	–	1.36068	–
[2]	785.05	–	21.7

[2]
Settings	vapor or sublimation pressure [kPa]
310.89 K	16.01
318.88 K	24.01
323.51 K	30.01
328.54 K	38.01
332.24 K	45.01
334.57 K	50
335.05 K	51.01
338.38 K	59.01
341.01 K	66.01
343.4 K	73.01
344.02 K	75
345.61 K	80.01
347.66 K	87.01
349.56 K	94
349.58 K	94.01
351.65 K	102.07
